Experimental data published in PubChem BioAssay (NCI).
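96-well plates; 48 h exposure; 5 concentrations. Endpoints by linear interpolation between flanking doses. Not reached: highest tested concentration assigned. Definition used: TGI = concentration required for complete inhibition of growth.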

Tests used:
Assay in all cases: growth of human tumour cells (NCI), 48 h
DLD-1 colon = test system: DLD-1 colon
DMS 114 small cell lung = test system: DMS 114 small cell lung
DMS 273 small cell lung = test system: DMS 273 small cell lung
HOP-18 NSCLC = test system: HOP-18 NSCLC
KM20L2 colon = test system: KM20L2 colon
LXFL 529 NSCLC = test system: LXFL 529 NSCLC
RXF-631 renal = test system: RXF-631 renal
SNB-78 CNS = test system: SNB-78 CNS
XF 498 CNS = test system: XF 498 CNS

| Compound | TGI (DLD-1 colon) [µM] | TGI (DMS 114 small cell lung) [µM] | TGI (DMS 273 small cell lung) [µM] | TGI (HOP-18 NSCLC) [µM] | TGI (KM20L2 colon) [µM] | TGI (LXFL 529 NSCLC) [µM] | TGI (RXF-631 renal) [µM] | TGI (SNB-78 CNS) [µM] | TGI (XF 498 CNS) [µM] |
| --- | --- | --- | --- | --- | --- | --- | --- | --- | --- |
| O=c1ccn(/C=C/C(O)C(O)CO)c(=O)[nH]1 (stereo not given) | > 100 | > 100 | > 100 | > 100 | > 100 | > 100 | > 100 | > 100 | > 100 |
| CC(C)N(C(=O)C12C3C4C1C1C2C3C41C(=O)N(C(C)C)C(C)C)C(C)C (stereo not given) | > 50 | > 50 | > 50 | – | > 50 | > 50 | > 50 | > 50 | > 50 |
| CN(C)CC(/C(Cc1ccccc1)=N\NC(=S)NN)c1ccccc1 (stereo not given) | > 100 | > 100 | > 100 | – | > 100 | > 100 | – | > 100 | > 100 |
| CSc1ccc2c(cc1=O)C(NC(=O)c1ccc(C#N)cc1)CCc1cc(O)c(O)c(O)c1-2 (stereo not given) | 70.2 | 44.9 | > 100 | – | 45.5 | 44.4 | > 100 | > 100 | 89.2 |
| O=C(CC(=O)c1ccccc1)C(=O)Nc1ccc(Cl)cc1 | > 100 | > 57 | > 100 | > 100 | > 100 | > 100 | – | > 100 | > 100 |
| Nc1nc2c(ncn2CCCC(c2ccccc2)P(=O)(O)O)c(=O)[nH]1 (stereo not given) | > 100 | > 100 | > 100 | > 100 | > 100 | > 100 | – | > 100 | – |
| C/C(N=NS(=O)(=O)c1ccc(C)cc1)=C1\C=CC=CN1O | > 100 | > 100 | > 100 | > 100 | > 100 | > 100 | > 100 | > 100 | > 100 |
| CS(=O)(=O)C1(Br)S(=O)(=O)OCCOS1(=O)=O | > 100 | > 100 | > 100 | – | > 100 | > 100 | – | > 100 | > 100 |
| O=C(O)C12CC3CC(CC(F)(C3)C1)C2 | > 100 | > 100 | > 100 | – | > 100 | > 100 | – | > 100 | > 100 |
